The text below walks through data of patent publication US20030068615A1, “Polypeptides that bind HIV gp120 and related nucleic acids, antibodies, compositions, and methods of use” (priority 1999, published 2003).

Like-named read-outs stand apart in the source and are kept apart here.

The target of the experiment is HIV-1LAI envelope gp120 (Human immunodeficiency virus type 1 group M subtype B, UniProt P03377). The experiment is classed as binding. Conditions: for number of radioactive decays (counts) counted: human CD4 21-mer scan, empty control 2075; for Counts per 20′ Average-background: CCR5 18-mer scan, radiolabeled HIV-1LAI gp120; for Binding Results For Window Length (counts bound-background), 9 / Binding Results For Window Length (counts bound-background), 12 / Binding Results For Window Length (counts bound-background), 15 / Binding Results For Window Length (counts bound-background), 18: STRL33 amino terminus; for Binding Results For Window Length (counts bound-background), 9: 9-mer starting at the first residue of the printed sequence; for Binding Results For Window Length (counts bound-background), 12: 12-mer starting at the first residue of the printed sequence; for Binding Results For Window Length (counts bound-background), 15: 15-mer starting at the first residue of the printed sequence; for Binding Results For Window Length (counts bound-background), 18: 18-mer starting at the first residue of the printed sequence.

Where [1] appears, read: Panel E, 9-mers and 12-mers of CD4, empty control 571.
Where [2] appears, read: Panel C, 15-mers and 18-mers of CD4, empty control 556.
[3] abbreviates: Panel A, 21-mers of CD4, empty control 515 and 617.
[4] abbreviates: Panel B, 15-mers and 18-mers of CD4, empty control 575.
[5] abbreviates: CXCR4 18-mer scan, background subtracted, empty control 0.
Setting [6] is: CXCR4 18-mer scan, empty control 412.
Where [7] appears, read: STRL33 18-mer scan, background subtracted, first of two count columns.
[8] abbreviates: STRL33 18-mer scan, background subtracted, second of two count columns.
[9] abbreviates: Panel D, 9-mers and 12-mers of CD4, empty control […].

Take VYKKEGEQV: the “COUNTS of radiolabeled gp120 retained” value under setting [1] is reported as 490 counts.

Consider VYKKEGEQVEFS, for which the “COUNTS of radiolabeled gp120 retained” value under setting [1] is recorded as 584 counts.

Take VYKKEGEQVEFSFPL: the “COUNTS of radiolabeled gp120 retained” value under setting [2] was 714 counts.

Regarding VYKKEGEQVEFSFPLAFT, the “COUNTS of radiolabeled gp120 retained” value under setting [2] is 4307 counts.

Regarding “VYKKEGEQVEFSFPLAFTVEK [human CD4 211-231]”, the “number of radioactive decays (counts) counted” value (“number of radioactive decays” for short) was found to be 14740 counts. Also, the “COUNTS of radiolabeled gp120 retained” value under setting [3] is listed as 2429 counts.

In the case of WDQGNFPLIIKNLKI, the “COUNTS of radiolabeled gp120 retained” value under setting [4] is 534 counts.

Consider WDQGNFPLIIKNLKIEDS, for which the “COUNTS of radiolabeled gp120 retained” value under setting [4] came out at 626 counts.

As for “WGPTSPKLMLSLKLENKEAKV [human CD4 331-351]”, the “number of radioactive decays” value came out at 2414 counts.

For the sequence WIPALLLTIPDFIFANVS, the “radioactive counts recorded in twenty minutes” value (“radioactive counts recorded” for short) reads like this: under setting [5], 182 counts; under setting [6], 594 counts.

As for WITFDLKNKEVSVKRVTQDPK, the “number of radioactive decays” value came out at 2126 counts.

WTCTVLQNQKKVEFK: the “COUNTS of radiolabeled gp120 retained” value under setting [2] is reported as 566 counts.

With WTCTVLQNQKKVEFKIDI, the “COUNTS of radiolabeled gp120 retained” value under setting [2] worked out at 588 counts.

In the case of WVVAVFASLPGIIFTRSQ [CCR5 segment 153-], for the setting “background subtracted”, the “Counts per 20′ Average-background” value is on record as 87 counts per 20′.

Take YAAAQWDFGNTMCQLLTG [CCR5 segment 89-]: the “Counts per 20′ Average-background” value (background subtracted) stood at 494 counts per 20′.

With YAFVGEKFRNYLLVFFQK [CCR5 segment 297-], the “Counts per 20′ Average-background” value (background subtracted) is 596 counts per 20′.

Turning to “YAGIHEWVFGQVMCKSLL [STRL33 segment 89-106]”, the “radioactive counts recorded” value by setting is: under setting [7], 5911.5 counts; under setting [8], 6245.5 counts.

As for “YAGSGNLTLALEAKTGKLHQE [human CD4 291-311]”, the “number of radioactive decays” value was 1830 counts.

Regarding “YAMTSFHYTIMVTEAIAY [STRL33 segment 261-278]”, the “radioactive counts recorded” value runs as follows: under setting [7], 2688.5 counts; under setting [8], 2359.5 counts.

On to “YDSMKEPCFREENANFNK [CXCR4 segment 21-38]”, for which the “radioactive counts recorded” value under setting [5] came to 53 counts and the “radioactive counts recorded” value under setting [6] worked out at 465 counts.

In the case of YGFSSFNDSSQEEHQAFL, under “background subtracted”, the “Binding Results For Window Length (counts bound-background), 9” value is 345 counts; the “Binding Results For Window Length (counts bound-background), 12” value stood at 745 counts; the “Binding Results For Window Length (counts bound-background), 15” value came to 645 counts; the “Binding Results For Window Length (counts bound-background), 18” value is reported as 1138 counts.

As for YGNVFNLDKLICGYHDEA, the “radioactive counts recorded” value is −41.5 counts under setting [7] and −20.5 counts under setting [8].

Regarding YHEDYGFSSFNDSSQEEH, where the note is “background subtracted”, the “Binding Results For Window Length (counts bound-background), 9” value is given as 728 counts; the “Binding Results For Window Length (counts bound-background), 12” value was determined as 1950 counts; the “Binding Results For Window Length (counts bound-background), 15” value was found to be 1357 counts; the “Binding Results For Window Length (counts bound-background), 18” value came out at 985 counts.

For the sequence YICEVEDQK, the “COUNTS of radiolabeled gp120 retained” value under setting [9] is recorded as 728 counts.

Turning to YICEVEDQKEEV, under setting [9], the “COUNTS of radiolabeled gp120 retained” value worked out at 734 counts.

Turning to YICEVEDQKEEVQLL, the “COUNTS of radiolabeled gp120 retained” value under setting [4] was 1064 counts.

On to YICEVEDQKEEVQLLVFG, for which the “COUNTS of radiolabeled gp120 retained” value under setting [4] worked out at 4611 counts.

In the case of YKKEGEQVE, the “COUNTS of radiolabeled gp120 retained” value under setting [1] worked out at 518 counts.

YKKEGEQVEFSF: under setting [1], the “COUNTS of radiolabeled gp120 retained” value was determined as 548 counts.

Turning to YKKEGEQVEFSFPLA, under setting [2], the “COUNTS of radiolabeled gp120 retained” value was 687 counts.

Take YKKEGEQVEFSFPLAFTV: the “COUNTS of radiolabeled gp120 retained” value under setting [2] amounted to 4839 counts.

Consider YKKEGEQVEFSFPLAFTVEKL, for which the “COUNTS of radiolabeled gp120 retained” value under setting [3] is given as 735 counts.

With “YQKKLRSMTDKYRLHLSV [CXCR4 segment 65-82]”, the “radioactive counts recorded” value under setting [5] came out at 99 counts and the “radioactive counts recorded” value under setting [6] came to 511 counts.

As for “YSIIFLTGIVGNGLVILV [CXCR4 segment 45-62]”, the “radioactive counts recorded” value is, setting by setting: under setting [5], 123 counts; under setting [6], 535 counts.

For YSSVLILAFISLDRYLAI, the “radioactive counts recorded” value was 157 counts under setting [5] and 569 counts under setting [6].

YTINFYTSMLILTCITVD: the “radioactive counts recorded” value was determined as 351.5 counts under setting [7] and 510.5 counts under setting [8].

As to YVGVWIPALLLTIPDFIF, the “radioactive counts recorded” value turned out to be 124 counts under setting [5] and 536 counts under setting [6].
